# “Also recorded” adds a separate entry of the source. Like-named read-outs stand apart in the source and are kept apart here.
# Assays:
# [1] = Cytotoxicity against mammalian cells; format: cell-based, rat
# Experimental: (§1) In vitro tests for the activity against Trypanosoma brucei rhodesiense (bloodstream trypomastigotes, STIB 900 strain), T. cruzi (amastigotes, Tulahuen C4 strain), Leishmania donovani (amastigotes, MHOM-ET-67/L82 strain), Plasmodium falciparum (intraerythrocytic forms, NF54 IEF strain), as well as for cytotoxicity against mammalian cells (L6-cell-line from rat-skeletal myoblasts) were performed according to established protocols as reported previously, e.g, in [33].
# [2] = tested on: Plasmodium falciparum (intraerythrocytic forms, NF54 IEF strain); experiment: In vitro activity against Plasmodium falciparum; format: cell-based; conditions: for SI P. falciparum: selectivity index determined with L6 cells
# Experimental: (§2) As part of an extensive screening of Asteraceae from the Brazilian “Cerrado”, extracts obtained from the leaves of Aldama discolor with solvents of different polarity (n-hexane (Hex), dichloromethane (DCM), ethyl acetate (EtOAc) and methanol (MeOH)) were tested for in vitro activity against Trypanosoma brucei rhodesiense (bloodstream trypomastigotes), T. cruzi (intracellular amastigotes), Leishmania donovani (axenic amastigotes) and Plasmodium falciparum (intraerythrocytic forms). Each extract was tested at two concentrations, 2 and 10 μ g/mL, for growth inhibitory activity (% GI) against the various parasites.
# as §1
# [3] = tested on: Trypanosoma brucei rhodesiense (bloodstream trypomastigotes, STIB 900 strain); experiment: In vitro activity against Trypanosoma brucei rhodesiense; format: cell-based; conditions: for IC50: Trypanosoma brucei, read-out: IC50 T. b. rhodesiense; for SI T. b. rhodesiense: selectivity index determined with L6 cells
# Experimental: as §2, §1
# [4] = tested on: T. cruzi (amastigotes, Tulahuen C4 strain); experiment: In vitro activity against T. cruzi; format: cell-based, Trypanosoma cruzi; conditions: for IC50: Trypanosoma cruzi, Tulahuen C4 strain, amastigotes, geometric mean of 2 experiments ±SE (values marked a: only one experiment); for SI T. cruzi: selectivity index determined with L6 cells
# Experimental: as §2, §1
# [5] = tested on: Leishmania donovani (amastigotes, MHOM-ET-67/L82 strain); experiment: In vitro activity against Leishmania donovani; format: cell-based; conditions: for IC50: Leishmania donovani, MHOM-ET-67/L82 strain, amastigotes, geometric mean of 2 experiments ±SE (values marked a: only one experiment), read-out: IC50 L. donovani; for SI L. donovani: selectivity index determined with L6 cells
# Experimental: as §2, §1
# [6] = tested on: T.b. brucei; set-up: method as in PMID 21843897; conditions: cited from earlier work
# [7] = tested on: erythrocytes; set-up: method as in PMID 15104493; conditions: cited from earlier work
# [8] = tested on: P. falciparum strain 3D7; set-up: method as in PMID 15104493; conditions: read-out: IC50 in vitro antiplasmodial effect; cited from earlier work
# [9] = tested on: trypomastigote forms of T. cruzi (Y strain); set-up: method as in PMID 18688888; conditions: in vitro, read-out: IC50 against trypomastigote forms of T. cruzi; cited from earlier work
# [10] = tested on: T. b. rhodesiense; set-up: method as in PMID 24165182; conditions: in words; cited from earlier work
# [11] = tested on: P. falciparum K-1 strain; set-up: method as in PMID 16309313; conditions: read-out: IC50 antiplasmodial activity; cited from earlier work
# [12] = L6-cell-line from rat-skeletal myoblasts, geometric mean of 2 experiments ±SE, read-out: IC50 L6 Cells (cytotoxicity)
# [13] = STIB 900 strain, trypomastigotes, geometric mean of 2 experiments ±SE (values marked a: only one experiment)
# [14] = NF54 strain, intra-erythrocytic stages, geometric mean of 2 experiments ±SE (values marked a: only one experiment), read-out: IC50 P. falciparum
# [15] = Plasmodium falciparum, NF54, NF54 strain, intra-erythrocytic stages, geometric mean of 2 experiments ±SE (values marked a: only one experiment), read-out: IC50 P. falciparum
compound,measurement,setting,value
"COc1cc([C@@H]2c3cc4c(cc3[C@H](O)[C@H]3COC(=O)[C@H]23)OCO4)cc(OC)c1OC [podophyllotoxin, reference compound]",IC50,[1]; [12],0.008 µM
"CCN(CC)CCCC(C)Nc1ccnc2cc(Cl)ccc12 (centres unmarked) [chloroquine, reference compound]",IC50,"[2]; Plasmodium falciparum, NF54, read-out: IC50 P. falciparum",0.003 ± 0.001 µM
"C=C1C[C@@]23CC[C@@H]4[C@](C)(CO)[C@H](O)CC[C@@]4(C)[C@@H]2CC[C@@H]1C3 (single isomer, unassigned; ent-3) [Compound 1, ent-3-α-hydroxy-kaur-16-en-18-ol]",IC50,[3]; [13],20.1 ± 0.5 µM
same,SI T. b. rhodesiense,[3],2
same,IC50,[1]; [12],40.2 ± 5.5 µM
same,IC50,[4],55.6 µM
same,SI T. cruzi,[4],1
same,IC50,[5],2.5 ± 1.5 µM
same,SI L. donovani,[5],16
same,IC50,[2]; [14],3.5 ± 0.2 µM
same,IC50,[2]; [15],3.54 µM
same,SI P. falciparum,[2],11
"C=CC1(C)CCC2=C(C1)C(=O)CC1C(C)(CO)CCCC21C (single isomer, unassigned; ent-7) [Compound 2, ent-7-oxo-pimara-8,15-diene-18-ol]",IC50,[3]; [13],24.3 µM
same,SI T. b. rhodesiense,[3],2
same,IC50,[1]; rat,48.3 ± 5.9 µM
same,IC50,[4],15.4 µM
same,SI T. cruzi,[4],3
same,IC50,[5],18.2 µM
same,SI L. donovani,[5],3
same,IC50,[2]; [14],3.8 µM
same,IC50,[2]; [15],3.85 µM
same,SI P. falciparum,[2],13
"C=CC1(C)C=C2C(O)CC3C4(C)COC(C4)CC3(C)C2CC1 (stereo not drawn) [Compound 4, ent-2S,4S-2,19-epoxy-pimara-8(14),15-diene-7β-ol]",IC50,[3]; [13],47.3 ± 4.1 µM
same,SI T. b. rhodesiense,[3],2
same,IC50,[1]; rat,101 ± 45.7 µM
same,IC50,[4],58.9 µM
same,SI T. cruzi,[4],2
same,IC50,[5],21.9 µM
same,SI L. donovani,[5],5
same,IC50,[2]; [15],16.1 ± 6.1 µM
same,SI P. falciparum,[2],6
"C=CC1(C)CCC2=C(C1)C(=O)CC1C2(C)CCC(O)C1(C)C (single isomer, unassigned; ent-7) [Compound 3, ent-7-oxo-pimara-8,15-diene-3β-ol]",IC50,[1]; rat,69.3 ± 10.9 µM
same,IC50,[4],19.4 µM
same,SI T. cruzi,[4],4
same,IC50,[5],13.8 µM
same,SI L. donovani,[5],5
same,IC50,[2]; [15],16.5 ± 4.9 µM
same,SI P. falciparum,[2],4
"C=C1C(=O)C23CCC4C(C)(C)CCCC4(C)C2C(O)CC1C3 (single isomer, unassigned; ent-16) [11α-Hydroxy-ent-16-kauren-15-one]",SI,[6]; cytotoxicity determined with a human embryonic cell line (MRC-5),3.2
same,IC50,[6]; read-out: IC50 against T.b. brucei,0.761 µM
"C=C[C@]1(C)C=C2CC[C@H]3[C@](C)(CO)[C@@H](O)CC[C@]3(C)[C@H]2CC1 [8(14),15-isopimaradien-3β,19-diol]",effect on erythrocytes,[7],induced echinocytosis at low concentrations and caused pronounced cell lysis
"CCCCCCCCCCCCCCCCOP(=O)([O-])OCC[N+](C)(C)C [miltefosine, reference compound]",IC50,[5],0.049 ± 0.001 µM
"C=C[C@@]1(C)CCC2=C(CC[C@H]3C(C)(C)[C@@H](O)CC[C@]23C)C1 [8(9),15-isopimaradien-3β-ol]",IC50,[8],24.5 µM
"3β-acetoxy-ent-8(14),15-pimaradiene",IC50,[9],149 µM
"C=C[C@@]1(C)CC[C@@H]2[C@](O)(CC[C@@H]3[C@](C)(CO)CCC[C@]32C)C1 (single isomer, unassigned; ent-15) [ent-15-pimarene-8β,19-diol]",IC50,[9],116 µM
"Nc1nc(N)nc(Nc2ccc([As]3SCC(CO)S3)cc2)n1 (centres unmarked) [melarsoprol, reference compound]",IC50,[3],0.025 ± 0.0005 µM
"C=C1C(=O)O[C@@H]2/C=C(/CO)C3=CC(=O)[C@@](C)(C[C@@H](OC(=O)/C(C)=C/C)[C@@H]12)O3 [Compound 5, budlein A]",activity against T. b. rhodesiense in vitro,[10],strong anti-T. b. rhodesiense activity; also recorded: exceptionally strong activity
"C=CC1(C)C=C2CCC3C(C)(C)CC(O)C(O)C3(C)C2C(O)C1 (centres unmarked) [1,2,11-trihydroxypimara-8(14),15-diene]",IC50,[11],27.4 µM
"O=C(Cn1ccnc1[N+](=O)[O-])NCc1ccccc1 [benznidazole, reference compound]",IC50,[4],0.653 ± 0.135 µM
"C=CC1(C)C=C2CCC3C(C)(C)CCC(O)C3(C)C2C(O)C1 (centres unmarked) [1,11-dihydroxypimara-8(14),15-diene]",IC50,[11],9.8 µM

# Source: PMC6274167, “ent-Pimarane and ent-Kaurane Diterpenes from Aldama discolor (Asteraceae) and Their Antiprotozoal Activity” (Molecules, 2016)
